This note sets out measurements from ChEMBL document CHEMBL5620422, “Design, synthesis, and biological evaluation of a series of new anthraquinone derivatives as anti-ZIKV agents” (Eur J Med Chem, 2023).

One data set deals with Zika virus. As to the kind of experiment: Antiviral activity against ZIKV ZG-01 infected in A549 cells preincubated for 1 hr followed by replacement with fresh media containing compound for 48 hrs by crystal violet staining based plaque assay. In kind it is functional, organism-based. The following applies: ZG-01, A549.
The nature of data set [1]: Cytotoxicity against human A549 cells assessed as reduction in cell viability incubated for 48 hrs by MTT assay. Format: toxicity, cell-based.
The next data set addresses NS5 (Zika virus) (UniProt A0A143MHK7). Briefly: Binding affinity to ZIKV RdRP by SPR assay.
Data set [2] relates to Porcine reproductive and respiratory syndrome virus. Briefly: Antiviral activity against Porcine reproductive and respiratory syndrome virus infected in MARC145 cells assessed as reduction in viral replication by microscopic analysis. In kind it is functional, organism-based.

The source made the active and inactive calls. The calls are words filed in the database; no cut-off is given here.

`C[C@]1(O)CC2=C(C[C@@]1(C)O)C(=O)c1c(O)cc(NC3CC3)c(O)c1C2=O`: the EC50 in the data set with Zika virus turned out to be 48.1 µM. The CC50 at 48 h in data set [1] was over 50 µM. The matching figures for `C[C@]1(O)CC2=C(C[C@@]1(C)O)C(=O)c1c(O)cc(NC3CCC3)c(O)c1C2=O`: 38.4 µM and over 50 µM. Regarding `C[C@]1(O)CC2=C(C[C@@]1(C)O)C(=O)c1c(O)cc(NC3CCCC3)c(O)c1C2=O`, the EC50 in the data set on Zika virus turned out to be 17.1 µM. In addition, the CC50 at 48 h in data set [1] is over 50 µM. Regarding `NC(=O)c1ncn([C@@H]2O[C@H](CO)[C@@H](O)[C@H]2O)n1`, at NS5 (Zika virus), the result was inactive. Regarding `C[C@]1(O)CC2=C(C[C@@]1(C)O)C(=O)c1c(O)cc(NCCN3CCCC3)c(O)c1C2=O`, the EC50 with Zika virus turned out to be 8.4 µM. Moreover, in data set [1], the CC50 at 48 h was over 50 µM. The matching figures for `C[C@]1(O)CC2=C(C[C@@]1(C)O)C(=O)c1c(O)cc(NCC3CCCO3)c(O)c1C2=O` (some centres undefined): 36.1 µM and over 50 µM. The matching figures for `C[C@]1(O)CC2=C(C[C@@]1(C)O)C(=O)c1c(O)cc(N3CCOCC3)c(O)c1C2=O`: 15.4 µM and over 50 µM. Take `CCC(C)Nc1cc(O)c2c(c1O)C(=O)C1=C(C[C@@](C)(O)[C@@](C)(O)C1)C2=O` (some centres undefined): the EC50 in the data set on Zika virus was over 50 µM. Besides, the CC50 at 48 h in data set [1] was over 50 µM. On to `COc1cc(O)c2c(c1)[C@@H](O)[C@H]1C[C@](C)(O)[C@H](O)C[C@@H]1C2=O` [TETRAHYDROALTERSOLANOL C], for which, in data set [2], the EC50 was 12.1 µM. Regarding `CCCNc1cc(O)c2c(c1O)C(=O)C1=C(C[C@@](C)(O)[C@@](C)(O)C1)C2=O`, the EC50 in the data set on Zika virus came out at 42.6 µM. In addition, in data set [1], the CC50 at 48 h is over 50 µM. In the data set with Zika virus, `C[C@]1(O)CC2=C(C[C@@]1(C)O)C(=O)c1c(O)cc(NCCc3cccs3)c(O)c1C2=O` had an EC50 of 7.8 µM. In addition, the CC50 at 48 h in data set [1] was over 50 µM. For `C[C@]1(O)CC2=C(C[C@@]1(C)O)C(=O)c1c(O)cc(NC3CCCCC3)c(O)c1C2=O`, it took 15.5 µM to reach a half-maximal effect in the data set on Zika virus (EC50). Further, the CC50 at 48 h in data set [1] is over 50 µM. The matching figures for `C[C@]1(O)CC2=C(C[C@@]1(C)O)C(=O)c1c(O)cc(NCCN3CCOCC3)c(O)c1C2=O`: 24.5 µM and over 50 µM. The matching figures for `C[C@]1(O)CC2=C(C[C@@]1(C)O)C(=O)c1c(O)cc(N3CCCC3)c(O)c1C2=O`: 25.6 µM and over 50 µM.

In turn, `CCNc1cc(O)c2c(c1O)C(=O)C1=C(C[C@@](C)(O)[C@@](C)(O)C1)C2=O` registered an EC50 in the data set with Zika virus of 44.2 µM. In data set [1], the CC50 at 48 h was over 50 µM. The like results for `C[C@]1(O)CC2=C(C[C@@]1(C)O)C(=O)c1c(O)cc(NCc3ccccc3)c(O)c1C2=O` were, in that order, 10.3 µM and over 50 µM. The matching figures for `C[C@]1(O)CC2=C(C[C@@]1(C)O)C(=O)c1c(O)cc(NCCc3ccccc3)c(O)c1C2=O`: 4.2 µM and over 50 µM.

Regarding `C[C@]1(O)CC2=C(C[C@@]1(C)O)C(=O)c1c(O)cc(NCCc3ccco3)c(O)c1C2=O`, in the data set on Zika virus, a half-maximal effect (EC50) was put at 8.1 µM. In addition, in data set [1], the CC50 at 48 h is over 50 µM.

As to `C[C@]1(O)CC2=C(C[C@@]1(C)O)C(=O)c1c(O)cc(NCc3ccco3)c(O)c1C2=O`, in the data set with Zika virus, the EC50 is 16.5 µM. For the same molecule, the CC50 at 48 h in data set [1] is over 50 µM. The matching figures for `C[C@]1(O)CC2=C(C[C@@]1(C)O)C(=O)c1c(O)cc(NCCN3CCCCC3)c(O)c1C2=O`: 8.7 µM and over 50 µM. The like results for `C[C@]1(O)CC2=C(C[C@@]1(C)O)C(=O)c1c(O)cc(NCc3cccs3)c(O)c1C2=O` were, in that order, 12.2 µM and over 50 µM. The like results for `C[C@]1(O)CC2=C(C[C@@]1(C)O)C(=O)c1c(O)cc(NCCO)c(O)c1C2=O` were, in that order, 48.4 µM and over 50 µM. Molecule `C[C@]1(O)CC2=C(C[C@@]1(C)O)C(=O)c1c(O)cc(NCCC3=CCCCC3)c(O)c1C2=O` yielded an EC50 in the data set on Zika virus of 5.7 µM. In addition, the CC50 at 48 h in data set [1] was over 50 µM.
